Experimental data from patent publication US8541373B2, “BChE albumin fusions for the treatment of cocaine abuse” (priority 2009, dated 2013).

Assays:
cocaine [1] = assay: AlbuBChE PK/PD analysis, direct inhibitory effect Emax model (cocaine concentration at 5 min); settings: Squirrel monkeys, cocaine at 5 min, approximate estimate
Procedure: In spite of the limited amount of data, an attempt was made to characterize PK/PD relationship. The computer software WinNonlin Professional (Version 4.0.1 Pharsight Corporation, USA) was used. Specifically the direct Inhibitory Effect Emax model was use in which Emax was assumed at AlbuBChE concentration of zero. The model equation can be described as follows: E=Emax*(1−(C/(C+EC50)))
The PD parameter used in the analysis was cocaine plasma concentration at 5 min post-cocaine dose. PK parameters used in the model were AlbuBChE plasma concentrations at 2, 72 and 96 hr post-AlbuBChE dose. Due to the fact that AlbuBChE concentration was not measured at 2 hr post-AlbuBChE dose, the 1st time sample collected was used in the analysis (24 hr post-AlbuBChE dose) with the assumptions that AlbuBChE concentration at 24 hr post AlbuBChE dose may reflect AlbuBChE concentration at 2 hr post AlbuBChE dose.

cocaine [2] = assay: Effect of AlbuBChE pretreatment on cocaine-induced cardiovascular and body temperature changes; format: in vivo, cynomolgus monkeys
Procedure: The effect of pretreatment with AlbuBChE prior to cocaine dose on CV parameters was tested on the second group (Group 2) of animals (3 males and 3 females). First baseline CV parameters were recorded on SD 15 after an IM administration of AlbuBChE formulation buffer followed by a single IV administration of saline (cocaine vehicle), 3 hours later. The effect of cocaine on CV parameters was measured on SD 18, on which the animals received a single IM injection of AlbuBChE formulation buffer followed by a single IV dose of cocaine (1 mg/kg, IV), 3 hours later.
The effect of pretreatment with AlbuBChE on cocaine-induced changes in CV parameters was monitored on SD 22. CV parameters were recorded subsequent to a single IM dose of AlbuBChE (15 mg/kg) followed by a single IV dose of cocaine (1 mg/kg), 3 hours later (see Table 21).

[3] = Clinical study: safety, tolerability and immunogenicity of single IM AlbuBChE; format: in vivo, human; settings: humans
Procedure: Forty (40) non-treatment seeking healthy adults who have used cocaine are randomly assigned to five (5) treatment groups. Each group will contain eight subjects. • Group A (low dose): Subjects receive a single, intramuscular injection of 50 mg of AlbuBChE. • Group B (intermediate dose): Subjects receive a single, intramuscular injection of 100 mg of AlbuBChE. • Group C (high-intermediate dose): Subjects receive a single, intramuscular injection of 150 mg of AlbuBChE. • Group D (high dose): Subjects receive a single, intramuscular injection of 300 mg of AlbuBChE. • Group E (negative control): Subjects receive a single, intramuscular injection of placebo.
Vital signs, including blood pressure, heart rate (part of the PD parameters) and body temperature are monitored. […]. Telemetry is performed for 4 hours immediately after each cocaine injection.
Local tolerability and pain (evaluated by the visual analogue scale (VAS)) at the injection site are evaluated during the first 24 h after dosing. Timepoints are: 20 min, 1, 2, 4, 8 and 24 hours post AlbuBChE dose.
Samples for immunogenic levels are collected but are not all necessarily assayed. Titers for antibodies against HSA, human butyryl cholinesterase (hBChE) and AlbuBChE are evaluated. Sampling timepoints are: pre-dose and 168 hours (Day 8), 240 hours (Day 11) and follow-up (Day 18±2) post-dose. The blood tests for IG assays take place before administration of cocaine (where relevant).

[4] = 15 mg/kg IM 3 hours before cocaine 1 mg/kg IV

AlbuBChE
AlbuBChE serum concentration that may result in 50% decrease in cocaine concentration (EC50) (cocaine [1]): ~0.4 µg/mL | Maximum blood pressure after cocaine (cocaine [2]; [4]): decreased | Truncation of time to reversal of blood pressure effect (cocaine [2]; [4]): 4.5 fold | Time to reversal of cocaine-induced increase in mean arterial blood pressure (cocaine [2]; 15 mg/kg IM 3 hours before cocaine 1 mg/kg IV (77 minutes with cocaine alone)): 17 min | Body temperature after cocaine (cocaine [2]; 15 mg/kg IM pre-treatment, cocaine 1 mg/kg IV, base line 38° C. (38.7° C. with cocaine alone)): 38.3 °C | Cocaine-induced increase in heart rate (cocaine [2]; 15 mg/kg pre-treatment, cocaine 1 mg/kg IV (70% with cocaine alone)): 30% | Time for heart rate to return to baseline after cocaine dose (cocaine [2]; 15 mg/kg pre-treatment, cocaine 1 mg/kg IV (2 hours with cocaine alone)): 30 min | Peak heart rate after cocaine (cocaine [2]; 15 mg/kg pre-treatment, cocaine 1 mg/kg IV, baseline 140 (240 with cocaine alone)): 182 beats/min | Local tolerability and pain at the IM injection site [3]: acceptable | Immune response ([3]; 50 mg to 300 mg single dose): does not provoke a significant immune response | Safety ([3]; IM doses of 50 mg to 300 mg): No significant safety issues are observed | Tolerability ([3]; IM doses of 50 mg to 300 mg): well tolerated | Blood pressure after AlbuBChE ([3]; intramuscular injection): a significant increase in blood pressure is not observed
